Results: ChEMBL document CHEMBL1129562, “Non-peptide cholecystokinin-B/gastrin receptor antagonists based on bicyclic, heteroaromatic skeletons” (J Med Chem, 1996)

Columns and labels:
[1] = biological target: T1, Cholecystokinin receptor type A (Cavia porcellus, UniProt Q63931); assay: In vitro inhibitory activity against Cholecystokinin type A receptor using [125I]BH-CCK-8S as radioligand in guinea pig pancreatic cells
T1 sequence (Q63931 whole entry): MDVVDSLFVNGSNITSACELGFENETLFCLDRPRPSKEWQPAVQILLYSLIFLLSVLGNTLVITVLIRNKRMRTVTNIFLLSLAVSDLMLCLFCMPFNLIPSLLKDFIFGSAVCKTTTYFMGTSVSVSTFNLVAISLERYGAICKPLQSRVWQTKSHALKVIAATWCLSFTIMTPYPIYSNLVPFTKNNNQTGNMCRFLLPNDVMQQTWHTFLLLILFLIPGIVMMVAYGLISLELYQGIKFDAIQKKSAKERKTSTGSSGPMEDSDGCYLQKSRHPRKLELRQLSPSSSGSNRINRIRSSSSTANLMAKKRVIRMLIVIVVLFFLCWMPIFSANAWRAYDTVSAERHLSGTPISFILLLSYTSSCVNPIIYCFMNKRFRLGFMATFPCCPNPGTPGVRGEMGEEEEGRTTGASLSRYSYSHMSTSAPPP

[2] = system: Canis familiaris; assay: Intravenous activity against CCKB/Gastrin antagonist in gastric fistula dog at dose 0.1 uM/kg (in vivo); format: functional, Canis lupus familiaris, Stomach
[3] = biological target: T2, Gastrin/cholecystokinin type B receptor (Rattus norvegicus) (UniProt P30553); assay: Intravenous activity against Cholecystokinin type B receptor in Gosh and Schild rat at a dsoe of 0.025 umol/kg (in vivo); format: functional, organism-based
T2 sequence (whole entry): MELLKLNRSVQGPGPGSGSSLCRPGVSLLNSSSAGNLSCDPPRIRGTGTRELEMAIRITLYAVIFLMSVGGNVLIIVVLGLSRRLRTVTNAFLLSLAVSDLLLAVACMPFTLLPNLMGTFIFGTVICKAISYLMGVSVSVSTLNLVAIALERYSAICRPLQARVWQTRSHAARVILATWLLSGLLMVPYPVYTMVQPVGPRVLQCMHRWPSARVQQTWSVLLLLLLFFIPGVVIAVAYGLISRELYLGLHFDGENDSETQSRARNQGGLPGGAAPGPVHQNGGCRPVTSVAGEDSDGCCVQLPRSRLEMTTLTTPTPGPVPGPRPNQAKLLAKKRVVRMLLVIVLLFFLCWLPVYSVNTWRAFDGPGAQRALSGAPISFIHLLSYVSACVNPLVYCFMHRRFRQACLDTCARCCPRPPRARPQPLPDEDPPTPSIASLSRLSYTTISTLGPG

[4] = biological target: T3, Gastrin/cholecystokinin type B receptor (Mus musculus, UniProt P56481); assay: In vitro inhibitory activity against Cholecystokinin type B receptor using [125I]BH-CCK-8S as radioligand in mouse cortical membranes; format: cell membranes
T3 sequence (P56481 whole entry): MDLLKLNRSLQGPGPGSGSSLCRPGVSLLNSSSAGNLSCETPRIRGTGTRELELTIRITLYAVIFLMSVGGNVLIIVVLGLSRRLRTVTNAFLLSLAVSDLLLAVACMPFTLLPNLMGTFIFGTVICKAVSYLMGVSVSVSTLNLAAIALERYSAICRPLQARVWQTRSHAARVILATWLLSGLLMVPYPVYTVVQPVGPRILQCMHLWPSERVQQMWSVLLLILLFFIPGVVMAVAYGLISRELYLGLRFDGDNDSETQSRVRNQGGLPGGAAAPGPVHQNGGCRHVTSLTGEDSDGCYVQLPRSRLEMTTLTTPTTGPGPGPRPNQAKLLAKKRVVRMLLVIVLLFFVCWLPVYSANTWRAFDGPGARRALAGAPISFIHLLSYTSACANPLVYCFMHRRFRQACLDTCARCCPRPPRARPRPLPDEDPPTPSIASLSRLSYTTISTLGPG

SMILES | Ki [1] [nM] | inhibition [3] [%] | Ki [4] [nM] | Inhibition [2] [%]
O=C(O)c1cc(NC(=O)[C@H](Cc2ccccc2)NC(=O)c2cc3cc[nH]c3cc2C(=O)NCC23CC4CC(CC(C4)C2)C3)cc(C(=O)O)c1 | 3630 | 97 | 1.1 | 79
O=C(O)c1cc(NC(=O)[C@H](Cc2ccc(O)cc2)NC(=O)c2cc3[nH]cnc3cc2C(=O)NCC23CC4CC(CC(C4)C2)C3)cc(C(=O)O)c1 | 2820 |  |  | 
O=C(O)c1cc(NC(=O)[C@H](Cc2ccccc2)NC(=O)c2cc3cc[nH]c3cc2C(=O)NCC2CCCCCC2)cc(C(=O)O)c1 | 3160 |  | 15.1 | 
O=C(O)c1cc(NC(=O)[C@H](Cc2ccccc2F)NC(=O)c2cc3[nH]cnc3cc2C(=O)NCC2CCCCCC2)cc(C(=O)O)c1 | 7410 |  | 7.59 | 
O=C(O)C1C2c3ccccc3C(c3ccccc32)C1C(=O)NCC12CC3CC(CC(C3)C1)C2 (stereo not drawn) | 8320 |  | 537 | 
O=C(O)c1cc(NC(=O)[C@H](Cc2ccccc2)NC(=O)c2cc3[nH]ccc3cc2C(=O)NCC23CC4CC(CC(C4)C2)C3)cc(C(=O)O)c1 | 3390 |  | 13.5 | 
O=C(O)c1cc2ccccc2cc1C(=O)NCC12CC3CC(CC(C3)C1)C2 | 11700 |  | 2880 | 
O=C(NCC12CC3CC(CC(C3)C1)C2)c1cc2ccccc2cc1C(=O)N1CCC[C@@H]1C(=O)O | 3550 |  | 339 | 
O=C(NCC12CC3CC(CC(C3)C1)C2)C1C2c3ccccc3C(c3ccccc32)C1C(=O)N1CCC[C@@H]1C(=O)O (stereo partly drawn) | 8130 |  | 891 | 
O=C(O)c1cc(NC(=O)[C@H](Cc2ccccc2F)NC(=O)c2cc3cc[nH]c3cc2C(=O)NCC23CC4CC(CC(C4)C2)C3)cc(C(=O)O)c1 | 3310 |  | 0.741 | 
O=C(O)c1cc(NC(=O)[C@H](Cc2ccccc2)NC(=O)c2cc3ccoc3cc2C(=O)NCC23CC4CC(CC(C4)C2)C3)cc(C(=O)O)c1 | 3800 |  | 5.37 | 

Compounds with a lower Ki [1], results first:

Ki [1] [nM] | inhibition [3] [%] | Ki [4] [nM] | SMILES | Inhibition [2] [%]
2240 |  | 1.23 | O=C(O)c1cc(NC(=O)[C@H](Cc2ccccc2)NC(=O)c2cc3ccsc3cc2C(=O)NCC23CC4CC(CC(C4)C2)C3)cc(C(=O)O)c1 | 
2570 |  | 4.47 | O=C(O)c1cc(NC(=O)[C@H](Cc2ccccc2F)NC(=O)c2cc3[nH]cnc3cc2C(=O)NCC23CC4CC(CC(C4)C2)C3)cc(C(=O)O)c1 | 
1480 | 61 | 5.25 | O=C(O)c1cc(NC(=O)[C@H](Cc2ccccc2)NC(=O)c2cc3[nH]cnc3cc2C(=O)NCC23CC4CC(CC(C4)C2)C3)cc(C(=O)O)c1 | 
851 |  | 13.2 | O=C(O)c1cc(NC(=O)[C@H](Cc2ccccc2)NC(=O)c2cc3ccccc3cc2C(=O)NCC23CC4CC(CC(C4)C2)C3)cc(C(=O)O)c1 | 
1290 |  | 1.2 | O=C(NCC12CC3CC(CC(C3)C1)C2)c1cc2[nH]ccc2cc1C(=O)N[C@@H](Cc1ccccc1)C(=O)Nc1cc(-c2nn[nH]n2)cc(-c2nn[nH]n2)c1 | 
891 |  | 4.07 | O=C(NCC12CC3CC(CC(C3)C1)C2)c1cc2nc[nH]c2cc1C(=O)N[C@@H](Cc1ccccc1)C(=O)Nc1cc(-c2nn[nH]n2)cc(-c2nn[nH]n2)c1 | 
912 |  | 3.89 | O=C(NCC1CCCCCC1)c1cc2nc[nH]c2cc1C(=O)N[C@@H](Cc1ccccc1F)C(=O)Nc1cc(-c2nn[nH]n2)cc(-c2nn[nH]n2)c1 | 
